Measurements from patent publication US9035048B2, “Tetrahydrotriazine compounds for treating diseases associated with AMPK activity” (POXEL, priority 2008, dated 2015).
Entries after “also recorded” stand apart in the source; their conditions may differ.

Columns and labels:
synaptopodin (G1D4) = assay: Glomerular synaptopodin (G1D4) fraction in the kidney of ZDF rats; format: in vivo, rat; conditions: ZDF fatty rats, age 19 weeks; for Glomerular synaptopodin (G1D4) fraction, Positive Area (%): 2 × 25 mg/kg/d p.o., mean ± SEM
Protocol: Synaptopodin (G1D4) was detected with a monoclonal mouse IgG antibody (#61094, Progen). For each rat, 40 glomeruli out of two consecutive sections were selected at random. The synaptopodin (G1D4) positive area in the mesangium was measured with the Ariol SL-50 automated microscope (Applied Imaging Int. Ltd.) scanning sections at X20 (scale x/y: 1 pixel=0.36×0.36 μm^2) and setting a circular measure field of 2400 μm^2 in the centre of the glomerulus. The positive labeled area of synaptopodin (G1D4) was calculated as percentage of tissue area in the measure field. For each animal, the mean out of 40 glomeruli was calculated. Statistical comparisons were performed by unpaired Mann-Whitney-test. Data are mean±SEM.
The antibody clone G1D4 recognized differentiated podocytes (glomerular visceral epithelial cells).

[1] = ob/ob and db/db mice, 8 day administration; cited from earlier work
AMPK [2] = assay: AMPK activation in hepatocyte cells; format: cell-based; conditions: different doses, FIG. 1
Description: The AMPK activation in hepatocytes is given in the gel electrophoresis pictures. The supplemental diagram visualizes the degree of AMPK activation in hepatocytes quantitatively.

AMPK [3] = assay: AMPK activation in muscle cells; format: cell-based; conditions: different doses, FIG. 2
[4] = system: human micro-vascular endothelial cells (HMEC-1); assay: ROS production in HMEC-1; format: cell-based
Protocol: (§1) The efficacy of 5,6-dihydro-4-dimethylamino-2-imino-6-methyl-1,3,5-triazine was tested if once administrated (50 mg/kg/day) to drinking water of fasted Wistar rats for at least 10 days. This approach was more physiological than subcutaneous injection at elevated dose. […] The effect was observed both in rat liver (FIG. 4) and in human micro-vascular endothelial cells (HMEC; Table 2).

[5] = system: ROS production linked to the reverse electron flux through complex I; assay: ROS production in rat liver after oral administration; format: in vivo; conditions: fasted Wistar rats, 50 mg/kg/day in drinking water for at least 10 days, succinate alone or with glutamate/malate
Protocol: as §1

AMPK activation in hepatocytes (AMPK [2])	SMILES	glomerular fraction of synaptopodin (effect of treatment in words) (synaptopodin (G1D4))	Glomerular synaptopodin (G1D4) fraction, Positive Area (%) (synaptopodin (G1D4))	reduction of blood glucose [1] [%]	AMPK activity in muscle cells (AMPK [3])	ROS production, H2O2 ([4]; substrate GMS, additions: None)	ROS production, H2O2 ([4]; substrate GMS, additions: Rot + antimycin A (AA))	ROS production, H2O2 ([4]; substrate GMS, additions: Rotenone (Rot))	ROS production, H2O2 ([4]; substrate Glutamate + Malate (GM), additions: None)	ROS production, H2O2 ([4]; substrate Glutamate + Malate (GM), additions: Rot + antimycin A (AA))	ROS production, H2O2 ([4]; substrate Glutamate + Malate (GM), additions: Rotenone (Rot))	ROS production, H2O2 ([4]; substrate Succinate (S), additions: None)	ROS production, H2O2 ([4]; substrate Succinate (S), additions: Rot + antimycin A (AA))	ROS production, H2O2 ([4]; substrate Succinate (S), additions: Rotenone (Rot))	ROS production linked to the reverse electron flux through complex I [5]
	CN(C)C(=N)NC(=N)N [Metformin, reference compound]	no effect	38 ± 4												
	NC(=O)c1ncn([C@@H]2O[C@H](CO)[C@@H](O)[C@H]2O)c1N [AICAR, 5-aminoimidazole-4-caboxamide-1beta-riboside]			35											
significant activation of AMPK	CC1NC(=N)N=C(N(C)C)N1 (centres unmarked) [EMD008, 5,6-dihydro-4-dimethylamino-2-imino-6-methyl-1,3,5-triazine]	moderately increased	45 ± 3		significantly increased AMPK activity; also recorded: dose dependent and even stronger than metformin's effect	15.7 ± 1.4 pmol/min/10^7 HMEC-1 cells	18.6 ± 1.3 pmol/min/10^7 HMEC-1 cells	6.9 ± 1.1 pmol/min/10^7 HMEC-1 cells	28.4 ± 2.2 pmol/min/10^7 HMEC-1 cells	51.4 ± 8.7 pmol/min/10^7 HMEC-1 cells	37.5 ± 1.5 pmol/min/10^7 HMEC-1 cells	14.5 ± 1.3 pmol/min/10^7 HMEC-1 cells	19.1 ± 3.2 pmol/min/10^7 HMEC-1 cells	11.4 ± 2.7 pmol/min/10^7 HMEC-1 cells	time-dependently inhibited the ROS production
